System: subjects with moderately to severely active RA who have an inadequate response to methotrexate (MTX)
Test: Study 1 (add-on to MTX) - Alanine Aminotransferase (ALT) levels
Format: in vivo, human
Conditions: 24 weeks results
Experimental: Double-blind, placebo-controlled add on study in subjects with moderately to severely active RA who have an inadequate response to methotrexate (MTX) (oral or parenteral).
595 subjects randomized to one of 6 dose regimens of Compound 1 (dosed as [Compound 1:HCl:3H2O]) (3 dose levels administered either once or twice daily) or placebo on top of each subject's stable dose of MTX.
Compound 1 (dosed as [Compound 1:HCl:3H2O]) is dosed for twelve weeks once daily (q.d.) (50 mg, 100 mg or 200 mg) or twice daily (b.i.d.) (25 mg, 50 mg or 100 mg); or placebo.
At Week 12, the subjects on placebo who have not achieved 20% improvement in swollen joint count (SJC66) and tender joint count (TJC68) are re-randomized automatically to receive Compound 1 (dosed as a [Compound 1:HCl:3H2O]) either at 100 mg q.d. or 50 mg b.i.d. doses in a blinded fashion; subjects on 50 mg q.d. who have not achieved 20% improvement in SJC66 and TJC68 will be assigned to 100 mg q.d. and subjects on 25 mg b.i.d. that have not achieved a 20% improvement in SJC66 and TJC68 will be assigned to 50 mg b.i.d. Subjects who switch treatment at week 12 are handled as if they discontinued at week 12 for the purpose of statistical analysis, whereas subjects in the other groups will maintain their randomized treatment until Week 24.
ALT levels determination is available at Quest Diagnostics, Clinical Trials, Quest House, 125-135 Staines Road, Hounslow, Middlesex, TW3 3JB, United Kingdom under Catalogue n#84460.
ALT catalyzes the exchange of the amino group of alanine with the oxogroup of 2-ketoglutarate to form pyruvate and glutamate. In the presence of lactic dehydrogenase, pyruvate reacts with NADH to form NAD+, measured spectrophotometrically. Guidelines for the ALT value have been issued by the association for Clinical Biochemistry and Laboratory Medicine, 130-132 Tooley Street LONDON SE1 2TU, united Kingdom, wherein the ALT value should be below 34 U/l in Female and below 52 U/L in male.

[1] = continued 100 mg b.i.d., week 1
[2] = continued 100 mg b.i.d., week 2
[3] = continued 100 mg b.i.d., week 4
[4] = continued 100 mg b.i.d., week 8
[5] = continued 100 mg b.i.d., week 12
[6] = continued 100 mg b.i.d., week 16
[7] = continued 100 mg b.i.d., week 20
[8] = continued 100 mg b.i.d., week 24

O=C(Nc1nc2cccc(-c3ccc(CN4CCS(=O)(=O)CC4)cc3)n2n1)C1CC1 [Compound 1, cyclopropanecarboxylic acid {5-[4-(1,1-dioxo-thiomorpholin-4-ylmethyl)-phenyl]-[1,2,4]triazolo[1,5-a]pyridin-2-yl}-amide]
Study 1 - ALT Mean CFB (continued 50 mg q.d., week 12): 0.5 IU/L | Study 1 - ALT Mean percentage CFB (continued 50 mg q.d., week 12): 13.8% | Study 1 - ALT Mean CFB (continued 50 mg q.d., week 16): 1.1 IU/L | Study 1 - ALT Mean percentage CFB (continued 50 mg q.d., week 16): 18.1% | Study 1 - ALT Mean CFB (continued 50 mg q.d., week 20): 2.2 IU/L | Study 1 - ALT Mean percentage CFB (continued 50 mg q.d., week 20): 22.1% | Study 1 - ALT Mean CFB (continued 50 mg q.d., week 24): 1.7 IU/L | Study 1 - ALT Mean percentage CFB (continued 50 mg q.d., week 24): 19.4% | Study 1 - ALT Mean CFB [1]: 0.5 IU/L | Study 1 - ALT Mean percentage CFB [1]: 8.8% | Study 1 - ALT Mean CFB [2]: 0.8 IU/L | Study 1 - ALT Mean percentage CFB [2]: 10.4% | Study 1 - ALT Mean CFB [3]: 0.8 IU/L | Study 1 - ALT Mean percentage CFB [3]: 20.4% | Study 1 - ALT Mean CFB [4]: 0.6 IU/L | Study 1 - ALT Mean percentage CFB [4]: 24.5% | Study 1 - ALT Mean CFB [5]: 1.7 IU/L | Study 1 - ALT Mean percentage CFB [5]: 26.0% | Study 1 - ALT Mean CFB [6]: 3.2 IU/L | Study 1 - ALT Mean percentage CFB [6]: 32.4% | Study 1 - ALT Mean CFB [7]: 2.8 IU/L | Study 1 - ALT Mean percentage CFB [7]: 34.2% | Study 1 - ALT Mean CFB [8]: 4.0 IU/L | Study 1 - ALT Mean percentage CFB [8]: 47.8% | Study 1 - ALT Mean CFB (continued 100 mg q.d., week 1): 3.0 IU/L | Study 1 - ALT Mean percentage CFB (continued 100 mg q.d., week 1): 13.6% | Study 1 - ALT Mean CFB (continued 100 mg q.d., week 2): 0.9 IU/L | Study 1 - ALT Mean percentage CFB (continued 100 mg q.d., week 2): 8.8% | Study 1 - ALT Mean CFB (continued 100 mg q.d., week 4): 0.6 IU/L | Study 1 - ALT Mean percentage CFB (continued 100 mg q.d., week 4): 9.1% | Study 1 - ALT Mean CFB (continued 100 mg q.d., week 8): 1.7 IU/L | Study 1 - ALT Mean percentage CFB (continued 100 mg q.d., week 8): 15.1% | Study 1 - ALT Mean CFB (continued 100 mg q.d., week 12): 1.6 IU/L | Study 1 - ALT Mean percentage CFB (continued 100 mg q.d., week 12): 15.6% | Study 1 - ALT Mean CFB (continued 100 mg q.d., week 16): 0.7 IU/L | Study 1 - ALT Mean percentage CFB (continued 100 mg q.d., week 16): 9.5% | Study 1 - ALT Mean CFB (continued 100 mg q.d., week 20): 1.8 IU/L | Study 1 - ALT Mean percentage CFB (continued 100 mg q.d., week 20): 19.8% | Study 1 - ALT Mean CFB (continued 100 mg q.d., week 24): 5.1 IU/L | Study 1 - ALT Mean percentage CFB (continued 100 mg q.d., week 24): 39.5% | Study 1 - ALT Mean CFB (continued 200 mg q.d., week 1): 2.3 IU/L | Study 1 - ALT Mean percentage CFB (continued 200 mg q.d., week 1): 11.4% | Study 1 - ALT Mean CFB (continued 200 mg q.d., week 2): 1.4 IU/L | Study 1 - ALT Mean percentage CFB (continued 200 mg q.d., week 2): 15.5% | Study 1 - ALT Mean CFB (continued 200 mg q.d., week 4): 1.1 IU/L | Study 1 - ALT Mean percentage CFB (continued 200 mg q.d., week 4): 15.1% | Study 1 - ALT Mean CFB (continued 200 mg q.d., week 8): 3.9 IU/L | Study 1 - ALT Mean percentage CFB (continued 200 mg q.d., week 8): 31.1% | Study 1 - ALT Mean CFB (continued 200 mg q.d., week 12): 3.4 IU/L | Study 1 - ALT Mean percentage CFB (continued 200 mg q.d., week 12): 33.9%
